# Laboratory results as given in patent US20080171697A1, “Peptides Having For Example Antiangiogenic Activity and Applications Thereof In Therapeutics” (priority 2003, published 2008).
# Positions of bridges follow the written chain, without caps; N, C: chain ends. No end group written: not given here.
# Experiments:
# HUVECs [1] = experiment: Study of the peptide entry process in HUVECs; type: cell-based, human; settings: for entry of the peptide into HUVECs: cotreatment with dextran beads for 5 h
# Description: No entry of the FITC-CycRAD peptide into HUVECs, nor entry of the FITC-CycRGD peptide into HeLas is observed.
# HUVECs [2] = experiment: Intracellular routing of TEAM-VP (confocal microscope); type: cell-based, human; settings: for codistribution with the lysosomes (anti-Lamp2-FITC): Streptavidin-Texas Red; for codistribution with the mitochondria (anti-VDAC): Streptavidin-FITC
# Protocol: HUVECs treated with TEAM-VP for 8, 24 and 32 h are observed using a confocal microscope.
# HUVEC cells [3] = experiment: Cytochrome c release in cellula (microscopy, anti-cytochrome c and anti-VDAC); type: cell-based, human; settings: 24 h of treatment, 10 μM
# HUVEC cells [4] = experiment: Drop in mitochondrial membrane potential in cellula (JC-1, microscope); type: cell-based, human; settings: HUVEC cells treated for 16-24 h with 15 μM, JC-1 labeling
# [5] = target: T1, αVβ3 integrins at the surface of endothelial cells (human, UniProt P06756 31-1048; P05106 27-788); experiment: flow cytometry of FITC-labeled peptide on HUVEC cells (FIG. 2)
# T1 construct: whole, on cells; Native integrin on HUVEC cells; the cells also carry other integrins (αVβ5 was stained as well); also called αVβ3 receptors
# T1 sequence (P06756 31-1048, chain 1 of 2): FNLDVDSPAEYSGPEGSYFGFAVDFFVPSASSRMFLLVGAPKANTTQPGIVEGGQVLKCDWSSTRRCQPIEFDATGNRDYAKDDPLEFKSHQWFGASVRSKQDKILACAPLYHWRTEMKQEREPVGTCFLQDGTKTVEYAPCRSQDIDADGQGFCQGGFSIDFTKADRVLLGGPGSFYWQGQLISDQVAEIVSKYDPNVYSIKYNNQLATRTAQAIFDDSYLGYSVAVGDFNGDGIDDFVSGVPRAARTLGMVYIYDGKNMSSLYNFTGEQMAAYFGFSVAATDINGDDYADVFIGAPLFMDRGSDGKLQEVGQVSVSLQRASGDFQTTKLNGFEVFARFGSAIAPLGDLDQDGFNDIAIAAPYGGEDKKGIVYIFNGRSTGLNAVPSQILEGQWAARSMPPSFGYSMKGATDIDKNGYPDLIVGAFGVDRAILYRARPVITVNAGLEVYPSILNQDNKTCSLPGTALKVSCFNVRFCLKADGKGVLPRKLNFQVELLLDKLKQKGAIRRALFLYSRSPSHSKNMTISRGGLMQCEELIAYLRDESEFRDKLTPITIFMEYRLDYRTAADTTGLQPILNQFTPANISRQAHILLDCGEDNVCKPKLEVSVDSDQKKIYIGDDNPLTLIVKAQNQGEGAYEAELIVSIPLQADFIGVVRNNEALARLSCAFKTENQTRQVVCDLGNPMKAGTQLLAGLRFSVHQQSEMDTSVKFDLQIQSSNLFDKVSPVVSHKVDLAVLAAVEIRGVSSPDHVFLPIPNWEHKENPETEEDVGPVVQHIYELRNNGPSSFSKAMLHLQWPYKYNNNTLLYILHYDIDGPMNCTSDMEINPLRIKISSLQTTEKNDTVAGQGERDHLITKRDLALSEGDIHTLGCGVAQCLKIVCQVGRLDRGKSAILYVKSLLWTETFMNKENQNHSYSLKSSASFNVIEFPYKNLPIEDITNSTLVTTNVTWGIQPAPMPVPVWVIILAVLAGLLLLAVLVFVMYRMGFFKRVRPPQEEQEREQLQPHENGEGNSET
# T1 sequence (P05106 27-788, chain 2 of 2): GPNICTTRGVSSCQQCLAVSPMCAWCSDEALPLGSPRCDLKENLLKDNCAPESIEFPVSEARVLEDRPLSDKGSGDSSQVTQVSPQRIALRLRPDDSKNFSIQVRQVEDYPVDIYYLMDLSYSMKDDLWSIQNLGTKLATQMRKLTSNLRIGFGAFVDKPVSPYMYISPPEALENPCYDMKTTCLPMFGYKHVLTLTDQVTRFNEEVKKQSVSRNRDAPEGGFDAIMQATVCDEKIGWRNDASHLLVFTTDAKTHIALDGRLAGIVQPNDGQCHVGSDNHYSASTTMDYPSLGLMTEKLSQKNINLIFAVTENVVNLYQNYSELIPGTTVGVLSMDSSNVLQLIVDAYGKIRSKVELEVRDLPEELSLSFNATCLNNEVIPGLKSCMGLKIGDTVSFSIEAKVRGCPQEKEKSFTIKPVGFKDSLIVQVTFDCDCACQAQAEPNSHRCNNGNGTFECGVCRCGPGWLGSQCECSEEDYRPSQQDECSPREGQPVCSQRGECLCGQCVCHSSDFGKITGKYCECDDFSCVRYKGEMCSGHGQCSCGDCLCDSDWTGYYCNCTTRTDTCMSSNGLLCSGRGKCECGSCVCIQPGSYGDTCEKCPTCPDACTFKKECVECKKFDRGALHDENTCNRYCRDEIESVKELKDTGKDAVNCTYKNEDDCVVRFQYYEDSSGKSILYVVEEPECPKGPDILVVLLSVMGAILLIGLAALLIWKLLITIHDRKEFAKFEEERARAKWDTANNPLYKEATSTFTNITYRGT
# Protocol: The HUVEC cells were or were not preincubated for 30 min at ambient temperature with 200 μM of nonlabeled CycRGD peptide before the addition of FITC-CycRGD peptide (10 μM) for 45 min., and were analyzed by flow cytometry (FIG. 2b).
# [6] = target: T1, αVβ3 integrins at the surface of …; experiment: peptide brought into contact with endothelial cells; endocytosis, confocal microscopy
molecule,measurement,setting,value
GG*CRGDMFG*CGG-amide (GGCRGDMFGCGG-NH2; disulfide 3-10; also: labeled with FITC in the binding assays) [FITC-CycRGD],colocalization with dextran beads,"HUVECs [1]; HUVECs, cotreatment for 5 h",colocalize with dextran beads
same,entry of the peptide into HUVECs,HUVECs [1],enter the HUVECs
GG*CRGDMFG*C-GG-LLFIHFRIGSRHSRIG-amide (GGCRGDMFGCGGLLFIHFRIGSRHSRIG-NH2; disulfide 3-10; N-terminus assumed; SMILES CC[C@H](C)[C@H](NC(=O)[C@H](CCCNC(=N)N)NC(=O)[C@H](CO)NC(=O)[C@H](Cc1c[nH]cn1)NC(=O)[C@H](CCCNC(=N)N)NC(=O)[C@H](CO)NC(=O)CNC(=O)[C@@H](NC(=O)[C@H](CCCNC(=N)N)NC(=O)[C@H](Cc1ccccc1)NC(=O)[C@H](Cc1c[nH]cn1)NC(=O)[C@@H](NC(=O)[C@H](Cc1ccccc1)NC(=O)[C@H](CC(C)C)NC(=O)[C@H](CC(C)C)NC(=O)CNC(=O)CNC(=O)[C@@H]1CSSC[C@H](NC(=O)CNC(=O)CN)C(=O)N[C@@H](CCCNC(=N)N)C(=O)NCC(=O)N[C@@H](CC(=O)O)C(=O)N[C@@H](CCSC)C(=O)N[C@@H](Cc2ccccc2)C(=O)NCC(=O)N1)[C@@H](C)CC)[C@@H](C)CC)C(=O)NCC(N)=O) [TEAM-VP],entry of the peptide under sodium azide+deoxyglucose,"HUVECs [1]; HUVECs, treatment with sodium azide+deoxyglucose",inhibited by treatment with sodium azide+deoxyglucose
same,codistribution with the lysosomes (anti-Lamp2-FITC),HUVECs [2]; 8 h of treatment,codistributes with the lysosomes
same,codistribution with the mitochondria (anti-VDAC),HUVECs [2]; 24 h,partially codistributes
same,codistribution with the lysosomes (anti-Lamp2-FITC),HUVECs [2]; 24 h of treatment,would appear to leave these organelles
same,codistribution with the mitochondria (anti-VDAC),HUVECs [2]; 32 h,totally codistributes
same,codistribution with the Golgi apparatus (anti-Golgin),"HUVECs [2]; throughout the treatment (8, 24 and 32 h)",No codistribution
same,release of cytochrome c in cellula,HUVEC cells [3],Release of cytochrome C observed
same,drop in mitochondrial membrane potential in cellula,HUVEC cells [4],Drop in potential observed
"GG*CRADMFG*CGG-amide (FITC, cyclised, GG/CGG flanks, amide) [FITC-CycRAD]",entry of the peptide into HUVECs,HUVECs [1],No entry
"GGCRGDMFGCGG-NH2 (disulfide 3-10; also: labeled with FITC in the binding assays, Cyclised targeting part of TEAM-VP; also called FITC-CycRGD; CycRGD peptide) [GG*CRGDMFG*CGG-amide (CycRGD)]",binding result,[5],binds
"GGCRGDMFGCGGLLFIHFRIGSRHSRIG-NH2 (disulfide 3-10; not fully specified; also: with or without biotin, FITC label also used, also called chimeric peptide) [TEAM-VP (SEQ ID No 2: GG*CRGDMFG*C-GG-[…]-amide)]",binding result,[6],binds
